The NIST ThermoML archive (doi:10.1021/je0341357)
± gives the expanded uncertainty stated by the source.

conditions: Liquid; Visual observation in an unstirred cell

Critical temperature [K]	Compound
630.8 ± 0.9	CCCC1CCCCC1 [1-cyclohexylpropane]
509 ± 0.7	C/C=C/CCC [(E)-2-hexene]
513.4 ± 0.9	C/C=C\CCC [(Z)-2-hexene]
477.4 ± 0.9	C=CC(C)(C)C [3,3-dimethyl-1-butene]
497.7 ± 0.9	C=C(C)C(C)C [2,3-dimethyl-1-butene]
548.5 ± 0.6	C/C=C\CCCC [2-heptene, (Z)-]
499.2 ± 0.4	CCCN [propan-1-amine]
653.1 ± 0.4	CCCCC1CCCCC1 [butylcyclohexane]
632.2 ± 0.4	CC(C)C1CCCCC1 [(1-methylethyl)cyclohexane]
642.1 ± 0.6	CC(C)CC1CCCCC1 [2-methylpropylcyclohexane]
647.5 ± 0.4	C1CCCCCCC1 [cyclooctane]
521 ± 0.9	CC(C)=C(C)C [2,3-dimethyl-2-butene]
467 ± 0.5	C=C(C)CC [2-methyl-1-butene]
533.6 ± 4.3	C=C(C)C(C)CC (centres undefined) [2,3-dimethyl-1-pentene]
566.3 ± 1.1	CCC/C=C/CCC [(E)-4-octene]
598 ± 2.1	CCCCCC(C)N (centres undefined) [1-methylhexylamine]
555.8 ± 1.1	CCCNCCC [dipropylamine]
510.2 ± 1.4	CC/C=C\CC [(Z)-3-hexene]
626.8 ± 0.9	NC1CCCCC1 [cyclohexylamine]
516 ± 4	C=CCC(C)(C)C [4,4-dimethyl-1-pentene]

The next lines start with the compound.

Compound	Critical temperature [K]
C=CCC(C)C [4-methyl-1-pentene]	493.1 ± 0.5
CC(C)(C)C1CCCCC1 [1,1-dimethylethylcyclohexane]	652 ± 0.4
CCCCCCN [1-hexanamine]	592.3 ± 0.7
CC/C=C/CC [(E)-3-hexene]	507.4 ± 2
CCC1CCCCC1 [ethylcyclohexane]	606.9 ± 0.4
C/C=C\C(C)C [(Z)-4-methyl-2-pentene]	496.3 ± 0.7
C1CCCCC1 [cyclohexane]	553.6 ± 1.1
C=C(C)CCCC [2-methyl-1-hexene]	541.8 ± 1.1
CC(C)N [2-propanamine]	472.5 ± 0.4
C/C=C/CCCC [2-heptene, (E)-]	542.8 ± 0.4
CC/C=C/CCC [3-heptene, (E)-]	538.6 ± 0.7
C=C(C)CCC [2-methyl-1-pentene]	521 ± 0.4
CCC=C(C)C [2-methyl-2-pentene]	509.3 ± 0.5
CCCCC=C(C)C [2-methyl-2-heptene]	568.9 ± 1.1
C=CCCC(C)C [5-methyl-1-hexene]	528.7 ± 0.4
CCCCCCNC [1-hexanamine, N-methyl-]	592 ± 1
CCCCNCCCC [dibutylamine]	607.5 ± 1.1
C/C=C/CCCCC [(E)-2-octene]	569.8 ± 0.4
C=C(C)CCCCC [2-methyl-1-heptene]	567.5 ± 0.9
